Results on one molecule are retold here after publication PMC9760444, “Direct targeting of sEH with alisol B alleviated the apoptosis, inflammation, and oxidative stress in cisplatin-induced acute kidney injury” (International Journal of Biological Sciences, 2023).

pKd: −log10 of the molar value.

For this experiment, the target named is T1, soluble epoxide hydrolase (sEH) (Homo sapiens, UniProt P34913).
T1 construct: gene EPHX2; Recombinant human sEH
T1 sequence (P34913 1-555): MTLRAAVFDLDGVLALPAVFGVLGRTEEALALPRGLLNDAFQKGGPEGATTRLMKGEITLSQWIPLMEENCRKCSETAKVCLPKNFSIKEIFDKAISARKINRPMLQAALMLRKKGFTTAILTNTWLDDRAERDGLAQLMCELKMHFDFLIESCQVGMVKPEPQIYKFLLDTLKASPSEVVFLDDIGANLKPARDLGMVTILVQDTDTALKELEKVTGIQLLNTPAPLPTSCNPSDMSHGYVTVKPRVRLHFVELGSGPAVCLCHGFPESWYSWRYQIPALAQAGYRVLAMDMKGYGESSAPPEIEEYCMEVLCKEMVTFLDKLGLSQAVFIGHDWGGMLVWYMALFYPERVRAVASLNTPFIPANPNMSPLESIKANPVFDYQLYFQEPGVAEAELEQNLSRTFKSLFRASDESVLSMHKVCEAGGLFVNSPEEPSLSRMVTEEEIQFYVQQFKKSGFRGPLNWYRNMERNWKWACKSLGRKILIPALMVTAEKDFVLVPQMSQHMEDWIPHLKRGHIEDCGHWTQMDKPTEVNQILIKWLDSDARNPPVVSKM
The experiment can be described thus: SPR (Biacore T200); supported by inhibition kinetics (Ki […]), pull-down, CETSA, SIP, DARTS. The class given is binding.

`C[C@H](C[C@H](O)[C@H]1OC1(C)C)C1=C2C[C@H](O)[C@H]3[C@@]4(C)CCC(=O)C(C)(C)[C@@H]4CC[C@]3(C)[C@@]2(C)CC1` [alisol B] showed a pKd of 5.88.

Broadly, the pKd is the Kd on a negative log10 scale, so that one unit is a factor of ten.
